{
  "source": "patent US12624068B2",
  "about": "“Exon skipping by peptide nucleic acid derivatives” (OliPass Corporation, priority 2016, dated 2026)",
  "key": {"[1]": {"test_system": "rats with diabetes-induced peripheral neuropathic pain (DPNP)", "assay": "Reversal of allodynia (von Frey) in rats with diabetes-induced peripheral neuropathic pain", "format": "in vivo, rat", "settings": "100 pmole/Kg subcutaneous in Days 11, 13, 15, 17 and 19", "protocol": "“SCN-ASO 7”, “SCN-ASO 8”, “SCN-ASO 21”, “SCN-ASO 35”, “SCN-ASO 36” and “SCN-ASO 37” were evaluated for their ability to reverse the allodynia in rats with diabetes-induced peripheral neuropathic pain (DPNP). In this example, the six SCN9A ASOs targeting a total of five splice sites were evaluated for their ability to reverse the allodynia induced by diabetic neuropathy in rats.\n[Induction of DPNP and Grouping] Diabetes was induced in rats by an intraperitoneal injection of streptozotocin at 60 mg/Kg in Day 0. In Day 10, rats with DPNP were randomly assigned to […] of negative control (vehicle only), “SCN-ASO 7” 100 pmole/Kg, “SCN-ASO 8” 100 pmole/Kg, “SCN-ASO 21” 100 pmole/Kg, “SCN-ASO 35” 100 pmole/Kg, “SCN-ASO 36” 100 pmole/Kg, and “SCN-ASO 37” 100 pmole/Kg. The animals were grouped based on the von Frey scores of individual animals in Day 10. (N=8-9 per group) Allodynia was scored using a set of microfilaments (Touch Test®) according to the “Up & Down” method. [J Neurosci. Methods vol 53(1), 55-63 (1994)]\n[ASO Treatment and von Frey Scoring] ASO solutions for injection were prepared by serially diluting aqueous mother stock solutions of the SCN9A ASOs to 100 nM in PBS (phosphate buffered saline). Animals were subcutaneously administered with ASO at 1 mL/Kg in Days 11, 13, 15, 17 and 19. Von Frey scoring was carried out 2 hours post dose in Days 11, 13, 15, 17 and 19. Von Frey scoring was additionally performed in Days 21 and 23 in order to assess the duration of the therapeutic activity after the final dosing. Daily von Frey scores were evaluated for statistical significance by student's t-test against the negative control group (vehicle only, i.e., PBS)."}, "[2]": {"test_system": "complementary 10-mer DNA", "assay": "Tm of 10-mer model PNA with complementary 10-mer DNA", "format": "binding", "settings": "for Tm: 4 μM PNA and 4 μM complementary 10-mer DNA, aqueous buffer pH 7.16, uncorrected; for ΔTm (Tm value - Tm value of PNA 10-1): complementary 10-mer DNA", "protocol": "(§1) The 10-mer PNA oligomers in Table 12 were evaluated for their binding affinity for the complementary 10-mer RNA or DNA by measuring Tm values as described below.\n(§2) A mixed solution of 4 μM 10-mer PNA oligomer and 4 μM complementary 10-mer DNA or RNA in 4 mL aqueous buffer (pH 7.16, 10 mM sodium phosphate, 100 mM NaCl) in 15 mL polypropylene falcon tube was incubated at 90° C. for a minute and slowly cooled down to ambient temperature. Then the solution was transferred into a 4 mL quartz UV cuvette, and subjected to Tm measurement at 260 nm on a UV/Visible spectrophotometer as described in the prior art [PCT/KR2009/001256] or with minor modifications. The DNA and RNA for Tm measurement were purchased from Bioneer (www.bioneer.com, Dajeon, Republic of Korea) and used without further purification."}, "[3]": {"test_system": "complementary 10-mer RNA", "assay": "Tm of 10-mer model PNA with complementary 10-mer RNA", "format": "binding", "settings": "for Tm: 4 μM PNA and 4 μM complementary 10-mer RNA, aqueous buffer pH 7.16, uncorrected; for ΔTm (Tm value - Tm value of PNA 10-1): complementary 10-mer RNA", "protocol": "as §1, §2"}, "[4]": {"test_system": "SCN9A mRNA", "assay": "SCN9A nested qPCR by SYBR Green in PC3 cells", "format": "cell-based, human", "settings": "PC3 cells, 24 hours", "protocol": "“SCN-ASO 7” was evaluated for its ability to inhibit the expression of the human SCN9A mRNA in PC3 cells by qPCR against a set of exon-specific primers as follows. [Cell Culture & ASO Treatment] PC3 cells grown in 60 mm culture dish containing 5 mL culture medium were incubated with “SCN-ASO 7” for 24 hours at 0 (negative control), 10, 100 or 1,000 zM. (2 culture dishes per concentration) [RNA Extraction] […] [cDNA Synthesis by One Step RT-PCR] […] NO: 78); and SCN-exon 9_reverse: (5'→3') […] NO: 79)]. […] [Nested qPCR Amplification] […] NO: 80); SCN-exon 4_reverse: (5'→3') […] NO: 81); SCN-exon 5_forward: (5'→3') […] NO: 82); SCN-exon 5_reverse: (5'→3') […] NO: 83); SCN-exon 6_forward: (5'→3') […] NO: 84); SCN-exon 6_reverse: (5'→3') […] NO: 85)]. The PCR reactions were probed with SYBR Green (Takara, Japan). […] “SCN-ASO 3” was evaluated for its ability to inhibit the expression of the full-length SCN9A mRNA in PC3 cells according to the protocol described in “SCN9A Example 2”, unless noted otherwise. “SCN-ASO 8” was evaluated for its ability to inhibit the expression of the full-length SCN9A mRNA in PC3 cells according to the protocol described in “SCN9A Example 2”, unless noted otherwise."}, "[5]": {"test_system": "sodium current in PC3 cells", "assay": "CoroNa assay of sodium current in PC3 cells", "format": "cell-based, human", "settings": "30 hours", "protocol": "Cellular sodium current is measured by patch clamp. As sodium ions enter cell, the intra-cellular sodium ion level increases. The intra-cellular sodium level can be probed using a sodium ion sensitive dye. “CoroNa Green” is a dye with a sodium ion chelator of crown ether type. Upon chelation with a sodium ion, “CoroNa Green” emits green fluorescence. “CoroNa Green” has been used to indirectly measure the intra-cellular sodium level. […] [Proc. Natl. Acad. Sci. USA vol 106(38), 16145-16150 (2009)]\nPC3 cells are known to abundantly express the human SCN9A mRNA, although there are other SCN subtypes concomitantly expressed. [Br J. Pharmacol. vol 156, 420-431 (2009)] Thus an inhibition of SCN9A mRNA expression may lead to a considerable reduction of the sodium current in PC3 cells, if the sodium ion current by the Nav1.7 sodium channel subtype occupies a marked portion of the total sodium ion current in PC3 cells. It is note that the SCN9A mRNA encodes the Nav1.7 sodium channel subtype.\n“SCN-ASO 7” was evaluated for its ability to inhibit the sodium ion current in PC3 cells using “CoroNa Green” as follows.\n[ASO Treatment] PC3 cells grown in 35 mm culture dish containing 2 mL F-12K medium were treated with “SCN-ASO 7” at 0 zM (negative control), 100 zM or 1 aM.\n[CoroNa Assay] 30 hours later, the cells were washed with 2 mL HBSS (Hank's Balanced Salt Solution, Cat. Number 14025-092, Life Technologies), and then charged with 2 mL fresh HBSS. Then the cells were treated with 5 μM “CoroNa Green” (Cat. Number C36676, Life Technologies) at 37° C. 30 min later, the cells were washed 2× with 2 mL HBSS, and charged with 2 mL fresh HBSS. The culture dish was mounted on an Olympus fluorescence microscope equipped with a digital video camera to continuously capture the green fluorescence images of the cells. The cells were acutely treated with 100 mM NaCl, and then the changes in fluorescence cellular images were digitally recorded over a period of 3 min. There were about 4 cells per frame on average. The fluorescence intensities from each individual cell were traced at the resolution of a second. The traces of the intracellular fluorescence intensities from individual cells were overlaid and averaged at each time point. The average of the traces from the individual cells of each ASO concentration were plotted as provided in FIG. 30A using ImageJ program (version 1.50i, NIH). The average fluorescence intensity trace was taken as the individual intra-cellular sodium concentration trace for the cells treated with “SCN-ASO 7” at 0 (negative control), 100 or 1,000 zM.\n“SCN-ASO 3” was evaluated for its ability to inhibit the sodium current in PC3 cells using “CoroNa Green” according to the protocol described in “SCN9A Example 5”, unless noted otherwise.\n“SCN-ASO 8” was evaluated for its ability to inhibit the sodium current in PC3 cells using “CoroNa Green” according to the protocol described in “SCN9A Example 3”, unless noted otherwise."}, "[6]": {"test_system": "10-mer complementary DNA", "assay": "Tm between PNA derivatives and 10-mer complementary DNA (N- or C-terminal)", "format": "binding", "settings": "uncorrected", "protocol": "as §2\nPNA derivatives of Formula I were evaluated for their binding affinity for 10-mer DNAs complementarily targeting either the N-terminal or C-terminal. The binding affinity was assessed by the Tm value for the duplex between PNA and 10-mer complementary DNA. The duplex between PNA derivatives and DNAs of full complementarity usually show Tm values too high to be reliably determined in aqueous buffer solution. The aqueous buffer solution tends to boil off during Tm measurement."}},
  "note": "{Fethoc} = N-terminal Fethoc capping group (publication's abbreviation); [C(1O2)] = modified PNA monomer acting as cytosine, C(pOq) type, 1O2; [A(5)] = modified PNA monomer acting as adenine, A(p) with p=5; [G(6)] = modified PNA monomer acting as guanine, G(p) with p=6; {NH2} = C-terminal amide; [C(12)] = modified PNA cytosine monomer; {Fmoc} = N-terminal Fmoc cap",
  "data": [
    {"substance": "Fethoc-AA(5)G-A(5)C(12)T-CG(6)G-A(5)GC(1O2)-TA(5)-NH2 (AAGACTCGGAGCTA; all peptide nucleic acid (PNA), [A(5)] at 2, 4, 10, 14, [C(12)] at 5, [G(6)] at 8, [C(1O2)] at 12, 5' {Fethoc}, 3' {NH2}) [SCN-ASO 37]", "values": [
      {"measurement": "maximum therapeutic efficacy based on the von Frey scores in Day 19", "setting": "[1]", "result": 22, "unit": "%"}
    ]},
    {"substance": "Fethoc-GA(5)T-A(5)TG-A(5)GT-G(6)CA(5)-C(1O2)TA(5)-A-NH2 (GATATGAGTGCACTAA; splice-switching; all peptide nucleic acid (PNA), [A(5)] at 2, 4, 7, 12, 15, [G(6)] at 10, [C(1O2)] at 13, 5' {Fethoc}, 3' {NH2}; peptide nucleic acid backbone) [SCN-ASO 35]", "values": [
      {"measurement": "maximum therapeutic efficacy based on the von Frey scores in Day 19", "setting": "[1]", "result": 52, "unit": "%"}
    ]},
    {"substance": "Fethoc-TA(5)A-A(5)AG(6)-TG(6)T-A(5)CC(1O2)-TA(5)A-A(5)-NH2 (TAAAAGTGTACCTAAA; splice-switching; all peptide nucleic acid (PNA), [A(5)] at 2, 4, 10, 14, 16, [G(6)] at 6, 8, [C(1O2)] at 12, 5' {Fethoc}, 3' {NH2}; peptide nucleic acid backbone) [SCN-ASO 21]", "values": [
      {"measurement": "maximum therapeutic efficacy based on the von Frey scores in Day 19", "setting": "[1]", "result": 93, "unit": "%"}
    ]},
    {"substance": "Fmoc-GTA(5)-GA(5)T-C(1O2)AC-T-NH2 (GTAGATCACT; all peptide nucleic acid (PNA), [A(5)] at 3, 5, [C(1O2)] at 7, 5' {Fmoc}, 3' {NH2}; model 10-mer peptide nucleic acid written N to C) [PNA 10-7]", "values": [
      {"measurement": "Tm", "setting": "[2]", "result": 69, "unit": "°C"},
      {"measurement": "ΔTm (Tm value - Tm value of PNA 10-1)", "setting": "[2]", "result": "+18 °C"},
      {"measurement": "Tm", "setting": "[3]", "result": 69, "unit": "°C"},
      {"measurement": "ΔTm (Tm value - Tm value of PNA 10-1)", "setting": "[3]", "result": "+18 °C"}
    ]},
    {"substance": "Fmoc-GTA(5)-GA(5)T-CA(5)C-T-NH2 (GTAGATCACT; all peptide nucleic acid (PNA), [A(5)] at 3, 5, 8, 5' {Fmoc}, 3' {NH2}; model 10-mer peptide nucleic acid written N to C) [PNA 10-4]", "values": [
      {"measurement": "Tm", "setting": "[2]", "result": 66, "unit": "°C"},
      {"measurement": "ΔTm (Tm value - Tm value of PNA 10-1)", "setting": "[2]", "result": "+15 °C"},
      {"measurement": "Tm", "setting": "[3]", "result": 66, "unit": "°C"},
      {"measurement": "ΔTm (Tm value - Tm value of PNA 10-1)", "setting": "[3]", "result": "+11 °C"}
    ]},
    {"substance": "Fmoc-GTA-GAT-CAC-T-NH2 (GTAGATCACT; all peptide nucleic acid (PNA), 5' {Fmoc}, 3' {NH2}; model 10-mer peptide nucleic acid written N to C) [PNA 10-1, reference compound]", "values": [
      {"measurement": "Tm", "setting": "[2]", "result": 51, "unit": "°C"},
      {"measurement": "Tm", "setting": "[3]", "result": 55, "unit": "°C"}
    ]},
    {"substance": "Fmoc-TA(5)A-A(5)TA(5)-CGC(1O2)-AA(5)A-A(5)AC-A(5)A-NH2 (TAAATACGCAAAAACAA; chemistry not fully specified) [SCN-ASO 8]", "values": [
      {"measurement": "decrease of expression levels of SCN9A exons 4-6 (SYBR Green)", "setting": "[4]; 10 zM", "result": "50-70%"},
      {"measurement": "decrease of expression levels of SCN9A exons 4-6 (SYBR Green)", "setting": "[4]; 100 zM", "result": "70-80%"},
      {"measurement": "maximum therapeutic efficacy based on the von Frey scores in Day 19", "setting": "[1]", "result": 61, "unit": "%"},
      {"measurement": "decrease of sodium current (CoroNa)", "setting": "[5]; PC3 cells, 100 zM", "result": 30, "unit": "%"},
      {"measurement": "decrease of sodium current / sodium channel activity (CoroNa)", "setting": "[5]; PC3 cells, 1,000 zM", "result": 31, "unit": "%"},
      {"measurement": "average cellular fluorescence intensity (CoroNa Green)", "setting": "[5]; PC3 cells, 1,000 zM, at 100 sec after 100 mM NaCl", "result": 89.7, "unit": "arbitrary unit"},
      {"measurement": "Tm Value, 10-mer DNA against C-Terminal", "setting": "[6]", "result": 68.6, "unit": "°C"},
      {"measurement": "Tm Value, 10-mer DNA against N-Terminal", "setting": "[6]", "result": 74.0, "unit": "°C"}
    ]}
  ]
}
